Source: patent US12186401B2, “Amide-based proteolysis modulators of B-rapidly accelerated fibrosarcoma (BRAF) and associated uses” (Ontario Institute for Cancer Research (OICR), priority 2019, dated 2025)
Where two headings read alike, the source gives them in different places.

How the values were obtained:
[1] = target: T1, BRAF^V600E (Homo sapiens, UniProt P15056, V600E); test: Cellular degradation assay, Western blot of BRAF^V600E; format: cell-based
T1 construct: A375 or SK-Mel-28 cells were obtained from ATCC; host or cells: A375 or SK-Mel-28
T1 sequence (P15056 whole entry V600E): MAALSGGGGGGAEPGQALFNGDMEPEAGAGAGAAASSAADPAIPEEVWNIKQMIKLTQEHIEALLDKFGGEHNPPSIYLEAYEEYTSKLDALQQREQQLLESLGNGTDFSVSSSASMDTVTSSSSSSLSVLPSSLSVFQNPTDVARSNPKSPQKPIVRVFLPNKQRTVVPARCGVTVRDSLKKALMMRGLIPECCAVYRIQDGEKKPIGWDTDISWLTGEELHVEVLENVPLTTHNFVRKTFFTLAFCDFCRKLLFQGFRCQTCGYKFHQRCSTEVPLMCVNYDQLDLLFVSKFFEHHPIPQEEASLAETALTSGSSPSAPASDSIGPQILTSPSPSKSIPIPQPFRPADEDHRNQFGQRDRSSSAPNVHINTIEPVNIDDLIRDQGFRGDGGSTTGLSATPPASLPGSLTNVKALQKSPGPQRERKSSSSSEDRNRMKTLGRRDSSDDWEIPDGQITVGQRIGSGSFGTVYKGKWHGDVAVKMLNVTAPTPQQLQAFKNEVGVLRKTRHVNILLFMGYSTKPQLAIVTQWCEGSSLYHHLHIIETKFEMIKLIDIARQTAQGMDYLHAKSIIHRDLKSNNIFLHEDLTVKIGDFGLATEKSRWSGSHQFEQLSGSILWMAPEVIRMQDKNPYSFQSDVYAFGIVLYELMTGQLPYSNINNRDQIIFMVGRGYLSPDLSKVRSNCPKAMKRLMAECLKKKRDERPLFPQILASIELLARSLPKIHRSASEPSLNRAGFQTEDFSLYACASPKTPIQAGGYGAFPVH
Description: (§1) Cell culture and compound treatment: A375 or SK-Mel-28 cells were obtained from ATCC and cultured in Dulbecco's Modified Eagle Media (DMEM) supplemented with 10% FBS, penicillin and streptomycin, at 37° C., 5% CO2. Cells grown in 6-well plates were treated for 24 hours with test compounds (solubilized in DMSO) or 0.1% DMSO vehicle control. Cells were harvested by first washing with 1× phosphate-buffered saline (PBS), then scrapping into 1 ml of PBS supplemented with 1 mM phenylmethylsulfonylflouride (PMSF). Cell pellets were obtained after a centrifugation at 300-350×g for 2 min, and immediately snap frozen in liquid nitrogen.
(§2) Cell lysis and Western blot analysis: Cell pellets were thawed and lysed by pipetting in lysis buffer (50 mM HEPES (pH 7.4), 150 mM NaCl, 5 mM EDTA, 0.5% NP-40, 5 mM NaF, 10% glycerol), with Roche protease inhibitor cocktail (5056489001) and phosphatase inhibitor cocktail PhosStop (4906845001) added fresh before use. The whole cell lysate was clarified by centrifugation at 15,000-20,000×g for 20 min and supernatant was collected. Total protein concentration in the clarified lysate was determination by Bradford assay (Bio-Rad), and 30-50 ug of protein was separated through SDS-PAGE, transferred onto nitrocellulose membrane and subject to standard immunoblotting protocol. Band intensities were quantified by Bio-Rad Image Lab software. Antibodies to B-Raf (sc-5284), A-Raf (sc-166771), phosphor MEK1/2, pS218/222 (sc-7995), phosphor ERK1/2 (sc-7383) were purchased from Santa Cruz; C-Raf (9422), MEK1/2 (9122), ERK1/2 (9102) from Cell Signaling; p27 (610242) from BD Biosciences. Antibody to the loading control α-tubulin was obtained from Sigma-Aldrich (6199).

[2] = target: B-Raf (V600E) (h) (Homo sapiens, UniProt P15056, V600E); test: Kinase inhibition assay B-Raf (V600E) (h), radiometric 33P-ATP filter assay; format: biochemical; conditions: read-out: IC50(nM) BRAF^V600E
Chain of B-Raf (V600E) (h) (P15056 whole entry V600E): as above
Description: (§3) b-Raf (V599E) (h) was incubated with 25 mM Tris/HCl pH 7.5, 0.2 mM EGTA, 10 mM DTT, 0.01% Triton X-100, 0.5 mM, sodium orthovandate, 0.5 mM […], 1% glycerol, 34 nM unactive MEK1, 69 nM unactive MAPK2, 0.5 mg/mL myelin basic protein, and 10 mM Magnesium acetate and […] (specific activity and concentration as required). The reaction was initiated by the addition of the Mg/ATP mix. After incubation for 40 minutes at room temperature, the reaction was stopped by the addition of phosphoric acid to a concentration of 0.5%. 10 μL of the reaction was then spotted onto a P30 filtermat and washed four times for 4 minutes in 0.425% phosphoric acid and once in methanol prior to drying and scintillation counting. Similar protocols were used for other kinase assays employing the kinase of interest to generate the data in Table 1.

[3] = target: T2, CRAF (Homo sapiens, UniProt P04049); test: Kinase inhibition assay CRAF (similar protocol); format: biochemical
T2 sequence (P04049 whole entry): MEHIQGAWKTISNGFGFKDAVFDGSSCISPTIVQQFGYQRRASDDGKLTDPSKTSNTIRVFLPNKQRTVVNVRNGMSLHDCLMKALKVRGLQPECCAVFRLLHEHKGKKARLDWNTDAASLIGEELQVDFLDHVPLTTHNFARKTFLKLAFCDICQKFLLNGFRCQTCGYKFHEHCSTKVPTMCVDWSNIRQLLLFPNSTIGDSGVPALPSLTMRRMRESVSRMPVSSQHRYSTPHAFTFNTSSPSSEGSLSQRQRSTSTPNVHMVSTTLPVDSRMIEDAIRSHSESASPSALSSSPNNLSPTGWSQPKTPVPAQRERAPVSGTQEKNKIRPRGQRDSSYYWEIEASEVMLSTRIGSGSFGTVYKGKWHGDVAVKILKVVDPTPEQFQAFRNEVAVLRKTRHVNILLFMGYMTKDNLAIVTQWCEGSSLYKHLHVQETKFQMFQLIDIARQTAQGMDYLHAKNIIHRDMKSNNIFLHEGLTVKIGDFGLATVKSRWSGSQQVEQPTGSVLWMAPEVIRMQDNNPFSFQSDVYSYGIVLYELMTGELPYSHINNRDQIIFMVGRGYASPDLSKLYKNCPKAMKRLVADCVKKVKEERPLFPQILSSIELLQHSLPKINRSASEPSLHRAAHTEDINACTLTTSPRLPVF
Description: as §3

[4] = target: T3, ARAF (Homo sapiens, UniProt P10398); test: Kinase inhibition assay ARAF (similar protocol); format: biochemical
T3 sequence (P10398 1-606): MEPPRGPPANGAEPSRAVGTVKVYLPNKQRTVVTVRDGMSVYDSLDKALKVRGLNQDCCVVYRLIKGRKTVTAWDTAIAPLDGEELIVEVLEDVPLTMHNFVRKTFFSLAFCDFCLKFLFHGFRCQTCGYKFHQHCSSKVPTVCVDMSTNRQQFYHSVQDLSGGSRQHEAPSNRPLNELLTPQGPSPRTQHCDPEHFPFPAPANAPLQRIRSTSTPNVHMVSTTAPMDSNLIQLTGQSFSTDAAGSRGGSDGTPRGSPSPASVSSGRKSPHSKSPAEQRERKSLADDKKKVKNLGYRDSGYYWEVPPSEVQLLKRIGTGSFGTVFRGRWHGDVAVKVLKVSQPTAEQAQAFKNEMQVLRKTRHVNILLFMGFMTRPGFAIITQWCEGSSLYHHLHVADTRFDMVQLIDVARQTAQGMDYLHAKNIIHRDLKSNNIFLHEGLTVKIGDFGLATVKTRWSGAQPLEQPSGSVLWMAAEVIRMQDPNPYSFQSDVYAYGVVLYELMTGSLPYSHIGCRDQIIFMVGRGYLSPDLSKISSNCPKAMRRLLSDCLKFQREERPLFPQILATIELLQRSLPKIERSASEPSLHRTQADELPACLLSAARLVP
Description: as §3

[5] = tested on: MEK and ERK kinase phosphorylation; test: Immunoblot of downstream MEK and ERK kinase phosphorylation in A375 cells; format: cell-based; conditions: A375 human melanoma cells, 24 hrs
Description: as §1
as §2, with “Antibodies to B-Raf (sc-5284), A-Raf (sc-166771), phosphor MEK1/2, pS218/222 (sc-7995), phosphor ERK1/2 (sc-7383) were purchased from Santa Cruz; C-Raf (9422), MEK1/2 (9122), ERK1/2 (9102) from Cell Signaling; p27 (610242) from BD Biosciences. Antibody to the loading control α-tubulin was obtained from Sigma-Aldrich (6199).” left out

[6] = target: T2, CRAF; test: Cellular degradation assay, Western blot of CRAF; format: cell-based; design: host or cells: A375; conditions: A375 human melanoma cells, 24 hrs; negative control 100 nM, PROTAC 0 to 4000 nM
Description: as §1
as §2, with “Antibodies to B-Raf (sc-5284), A-Raf (sc-166771), phosphor MEK1/2, pS218/222 (sc-7995), phosphor ERK1/2 (sc-7383) were purchased from Santa Cruz; C-Raf (9422), MEK1/2 (9122), ERK1/2 (9102) from Cell Signaling; p27 (610242) from BD Biosciences. Antibody to the loading control α-tubulin was obtained from Sigma-Aldrich (6199).” left out

[7] = target: BRAF (Homo sapiens, UniProt P15056); test: Kinase inhibition assay BRAF (similar protocol); format: biochemical
Chain of BRAF (P15056 whole entry): as the sequence (P15056 whole entry V600E) above, with E600V counted along it
Description: as §3

[8] = target: T3, ARAF; test: Cellular degradation assay, Western blot of ARAF; format: cell-based; design: host or cells: A375; conditions: A375 human melanoma cells, 24 hrs; negative control 100 nM, PROTAC 0 to 4000 nM
Description: as §1
as §2, with “Antibodies to B-Raf (sc-5284), A-Raf (sc-166771), phosphor MEK1/2, pS218/222 (sc-7995), phosphor ERK1/2 (sc-7383) were purchased from Santa Cruz; C-Raf (9422), MEK1/2 (9122), ERK1/2 (9102) from Cell Signaling; p27 (610242) from BD Biosciences. Antibody to the loading control α-tubulin was obtained from Sigma-Aldrich (6199).” left out

[9] = A375 human melanoma cells, 24 hrs
[10] = Table 1, cells treated 24 hours, Western blot
[11] = Table 1, cells treated 24 hours, Western blot, read-out: DC50(nM) BRAF^V600E

SMILES	degradation of BRAF^V600E by immunoblot (FIG. 3A) ([1]; dabrafenib 20 nM, PROTAC inhibitors 50 nM)	IC50 [2] [nM]	IC50 [3] [nM]	degradation of BRAF^V600E by immunoblot (FIGS. 4 and 5) [1, 9]	DCmax(%) BRAF^V600E [1, 10] [%]	DC50 [1, 11] [nM]	IC50 [4] [nM]	IC50 ([5]; A-375, read-out: BRAF^V600E IC50, inhibition of downstream MEK and ERK kinase phosphorylation, 0 to 4000 nM) [µM]	degradation activity on CRAF (FIG. 3C) [6]	DCmax, degradation of BRAF^V600E kinase (FIG. 3C) ([1]; A375 human melanoma cells, 24 hrs, 0 to 4000 nM) [%]	DC50 ([1]; A375 human melanoma cells, 24 hrs, 0 to 4000 nM, read-out: DC50, degradation of BRAF^V600E kinase (FIG. 3C)) [nM]	IC50 [7] [nM]	degradation activity on ARAF (FIG. 3C) [8]	degradation of BRAF^V600E by immunoblot (FIGS. 4 and 5) ([1]; A375 human melanoma cells, 24 hrs, listed as Pmd-PEG3-Dabrafenib#1)	inhibition of downstream MEK and ERK kinase phosphorylation (FIG. 3C) ([5]; negative control 100 nM, PROTAC 0 to 4000 nM)
CC(C)(C)c1nc(-c2cccc(NS(=O)(=O)c3c(F)cccc3F)c2F)c(-c2ccnc(N)n2)s1 [dabrafenib, reference compound]	no degradation														
CCCS(=O)(=O)Nc1ccc(F)c(-n2cc(-c3cncnc3)c3nc(N(C)C4CCN(C(=O)CCOCCOCCOCCNc5cccc6c5C(=O)N(C5CCC(=O)NC5=O)C6=O)CC4)ccc32)c1F (centres unmarked) [Entry 16, N-(3-(5-((1-(3-(2-(2-(2-((2-(2,6-dioxopiperidin-3-yl)-1,3-dioxoisoindolin-4-yl)amino)ethoxy)ethoxy)ethoxy)propanoyl)piperidin-4-yl)(methyl)amino)-3-(pyrimidin-5-yl)-1H-pyrrolo[3,2-b]pyridin-1-yl)-2,4-difluorophenyl)propane-1-sulfonamide]		65	532	Degradation of BRAF^V600E was observed	60	10	> 10000								
CCCS(=O)(=O)Nc1ccc(F)c(-n2cc(-c3cncnc3)c3nc(N(C)C4CCN(CC)CC4)ccc32)c1F [Entry 15, N-[3-[5-[(1-ethylpiperidin-4-yl)-methylamino]-3-pyrimidin-5-ylpyrrolo[3,2-b]pyridine-1-yl]-2,4-difluorophenyl]propane-1-sulfonamide, reference compound]		31	64		0		323								
CCCS(=O)(=O)Nc1ccc(F)c(-n2cc(-c3cncnc3)c3nc(N(C)C4CCN(C(=O)CCOCCOCCOCCOCCOCCOCCNc5cccc6c5C(=O)N(C5CCC(=O)NC5=O)C6=O)CC4)ccc32)c1F (centres unmarked) [Entry 19, N-(3-(5-((1-(1-((2-(2,6-dioxopiperidin-3-yl)-1,3-dioxoisoindolin-4-yl)amino)-3,6,9,12,15,18-hexaoxaheneicosan-21-oyl)piperidin-4-yl)(methyl)amino)-3-(pyrimidin-5-yl)-1H-pyrrolo[3,2-b]pyridin-1-yl)-2,4-difluorophenyl)propane-1-sulfonamide]		83	542	Degradation of BRAF^V600E was observed	60	100	6550								
CCCS(=O)(=O)Nc1ccc(F)c(-n2cc(-c3cncnc3)c3nc(N(C)C4CCN(C(=O)CCC(=O)NCCCOCCOCCOCCCNc5cccc6c5C(=O)N(C5CCC(=O)NC5=O)C6=O)CC4)ccc32)c1F (centres unmarked) [Entry 21, 4-(4-((1-(2,6-Difluoro-3-(propylsulfonamido)phenyl)-3-(pyrimidin-5-yl)-1H-pyrrolo[3,2-b]pyridin-5-yl)(methyl)amino)piperidin-1-yl)-N-(3-(2-(2-(3-((2-(2,6-dioxopiperidin-3-yl)-1,3-dioxoisoindolin-4-yl)amino)propoxy)ethoxy)ethoxy)propyl)-4-oxobutanamide]		82	468	Degradation of BRAF^V600E was observed	29	20	3340								
CCCS(=O)(=O)Nc1ccc(F)c(-n2cc(-c3cncnc3)c3nc(N(C)C4CCN(C(=O)CCOCCOCCOCCOCCOCCOCCOCCOCCNc5cccc6c5C(=O)N(C5CCC(=O)NC5=O)C6=O)CC4)ccc32)c1F (centres unmarked) [Entry 20, N-(3-(5-((1-(1-((2-(2,6-dioxopiperidin-3-yl)-1,3-dioxoisoindolin-4-yl)amino)-3,6,9,12,15,18,21,24-octaoxaheptacosan-27-oyl)piperidin-4-yl)(methyl)amino)-3-(pyrimidin-5-yl)-1H-pyrrolo[3,2-b]pyridin-1-yl)-2,4-difluorophenyl)propane-1-sulfonamide]		85	592	Degradation of BRAF^V600E was observed	40	75	4910								

Continued, in another order:

degradation of BRAF^V600E by immunoblot (FIG. 3A) ([1]; dabrafenib 20 nM, PROTAC inhibitors 50 nM)	IC50 [2] [nM]	IC50 [3] [nM]	degradation of BRAF^V600E by immunoblot (FIGS. 4 and 5) [1, 9]	DCmax(%) BRAF^V600E [1, 10] [%]	DC50 [1, 11] [nM]	IC50 [4] [nM]	IC50 ([5]; A-375, read-out: BRAF^V600E IC50, inhibition of downstream MEK and ERK kinase phosphorylation, 0 to 4000 nM) [µM]	degradation activity on CRAF (FIG. 3C) [6]	DCmax, degradation of BRAF^V600E kinase (FIG. 3C) ([1]; A375 human melanoma cells, 24 hrs, 0 to 4000 nM) [%]	DC50 ([1]; A375 human melanoma cells, 24 hrs, 0 to 4000 nM, read-out: DC50, degradation of BRAF^V600E kinase (FIG. 3C)) [nM]	IC50 [7] [nM]	degradation activity on ARAF (FIG. 3C) [8]	degradation of BRAF^V600E by immunoblot (FIGS. 4 and 5) ([1]; A375 human melanoma cells, 24 hrs, listed as Pmd-PEG3-Dabrafenib#1)	SMILES	inhibition of downstream MEK and ERK kinase phosphorylation (FIG. 3C) ([5]; negative control 100 nM, PROTAC 0 to 4000 nM)
	12	167		82	15	2220	0.02	not ARAF and CRAF	80	20	58	not ARAF and CRAF		CCCS(=O)(=O)Nc1ccc(F)c(-n2cc(-c3cncnc3)c3nc(N(C)C4CCN(C(=O)CCOCCOCCOCCOCCNc5cccc6c5C(=O)N(C5CCC(=O)NC5=O)C6=O)CC4)ccc32)c1F (centres unmarked) [Entry 17, N-(3-(5-((1-(1-((2-(2,6-dioxopiperidin-3-yl)-1,3-dioxoisoindolin-4-yl)amino)-3,6,9,12-tetraoxapentadecan-15-oyl)piperidin-4-yl)(methyl)amino)-3-(pyrimidin-5-yl)-1H-pyrrolo[3,2-b]pyridin-1-yl)-2,4-difluorophenyl)propane-1-sulfonamide]	inhibition of downstream MEK and ERK kinase phosphorylation
	25	223	Degradation of BRAF^V600E was observed	73	50	3620					66			CCCS(=O)(=O)Nc1ccc(F)c(-n2cc(-c3cncnc3)c3nc(N(C)C4CCN(C(=O)CCOCCOCCOCCOCCOCCNc5cccc6c5C(=O)N(C5CCC(=O)NC5=O)C6=O)CC4)ccc32)c1F (centres unmarked) [Entry 18, N-(3-(5-((1-(1-((2-(2,6-dioxopiperidin-3-yl)-1,3-dioxoisoindolin-4-yl)amino)-3,6,9,12,15-pentaoxaoctadecan-18-oyl)piperidin-4-yl)(methyl)amino)-3-(pyrimidin-5-yl)-1H-pyrrolo[3,2-b]pyridin-1-yl)-2,4-difluorophenyl)propane-1-sulfonamide]	
	47	22		0		> 10000							No degradation	CCCS(=O)(=O)Nc1ccc(F)c(-n2cc(-c3cncnc3)c3nc(N(C)C4CCN(C(=O)CCOCCOCCOCCNc5cccc6c5C(=O)N(C5CCC(=O)NC5=O)C6=O)CC4)ccc32)c1F (centres unmarked) [Entry 2]	
